According to patent publication US12247045B2, “MAP4K4 inhibitors” (Imperial College Innovations Limited, priority 2018, dated 2025):
Like-named read-outs stand apart in the source and are kept apart here.

What was measured:
Format in all cases: biochemical
MLK3/MAP3K11 = MLK3/MAP3K11 (Homo sapiens, UniProt Q16584); experiment: Kinase selectivity panel, MLK3/MAP3K11
Description: (§1) The data in Table 42 also provides the fold selectivity of the two compounds in favour of MAP4K4 over the tested kinase. The fold selectivity is indicated in parenthesis.

[1] = molecular target: T1, human MAP4K4 kinase domain (Homo sapiens, UniProt O95819); experiment: MAP4K4 kinase activity, CisBio HTRF Transcreener ADP assay
T1 construct: 0.5 nM human MAP4K4 kinase domain (Invitrogen); purchased Invitrogen
T1 sequence (O95819 25-289 limits assumed): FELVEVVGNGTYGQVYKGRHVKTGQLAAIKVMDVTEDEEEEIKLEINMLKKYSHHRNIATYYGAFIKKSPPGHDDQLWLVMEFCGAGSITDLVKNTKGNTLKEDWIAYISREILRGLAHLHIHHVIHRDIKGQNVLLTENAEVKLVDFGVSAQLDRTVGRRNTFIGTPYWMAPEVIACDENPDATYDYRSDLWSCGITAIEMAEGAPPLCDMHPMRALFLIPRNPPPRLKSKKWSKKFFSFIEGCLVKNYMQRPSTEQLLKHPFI
Outline: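 HTRF Transcreener ADP read-out (665/620 nm ratio) of ADP formed by 0.5 nM kinase domain with 1 μM biotin-myelin basic protein substrate and ATP at Km (10 μM), 1% DMSO, 2 h reaction. IC50 values binned as A ≤100 nM, B 100 nM–1 μM, C >1 μM.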

Aurora B = Aurora B (Homo sapiens, UniProt Q96GD4); experiment: Kinase selectivity panel, Aurora B; conditions: in favour of MAP4K4
Chain of Aurora B (Q96GD4 whole entry): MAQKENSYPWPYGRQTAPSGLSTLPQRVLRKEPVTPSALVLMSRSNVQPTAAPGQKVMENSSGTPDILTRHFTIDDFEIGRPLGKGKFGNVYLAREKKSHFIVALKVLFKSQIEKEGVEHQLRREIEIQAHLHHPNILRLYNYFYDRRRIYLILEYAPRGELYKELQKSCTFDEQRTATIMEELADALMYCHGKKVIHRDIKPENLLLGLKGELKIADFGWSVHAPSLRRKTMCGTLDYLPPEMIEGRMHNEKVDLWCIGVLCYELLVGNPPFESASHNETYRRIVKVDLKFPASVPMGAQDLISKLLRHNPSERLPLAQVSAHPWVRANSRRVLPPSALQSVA
Description: as §1

NUAK1 = molecular target: T2, NUAK1 (Homo sapiens, UniProt O60285); experiment: Kinase selectivity panel, NUAK1
T2 sequence (O60285 1-661): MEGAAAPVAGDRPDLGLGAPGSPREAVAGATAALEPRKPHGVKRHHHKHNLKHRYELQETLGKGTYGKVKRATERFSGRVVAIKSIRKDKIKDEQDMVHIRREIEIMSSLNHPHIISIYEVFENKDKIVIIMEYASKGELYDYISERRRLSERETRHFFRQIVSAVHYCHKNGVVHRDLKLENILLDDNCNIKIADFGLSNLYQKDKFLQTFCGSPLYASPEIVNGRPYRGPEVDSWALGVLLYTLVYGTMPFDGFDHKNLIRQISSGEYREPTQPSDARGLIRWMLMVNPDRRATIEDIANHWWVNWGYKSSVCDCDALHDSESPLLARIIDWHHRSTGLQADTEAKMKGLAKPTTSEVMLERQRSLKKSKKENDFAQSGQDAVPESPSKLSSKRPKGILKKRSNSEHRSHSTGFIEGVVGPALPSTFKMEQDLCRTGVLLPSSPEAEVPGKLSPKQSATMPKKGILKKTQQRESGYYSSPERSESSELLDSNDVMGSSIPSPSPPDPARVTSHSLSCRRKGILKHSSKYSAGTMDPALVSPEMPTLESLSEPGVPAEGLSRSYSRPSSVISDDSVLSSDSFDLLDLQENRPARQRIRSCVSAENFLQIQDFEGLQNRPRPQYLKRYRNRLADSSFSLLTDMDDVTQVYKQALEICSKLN
Description: as §1

Chain of MLK3/MAP3K11 (Q16584 whole entry): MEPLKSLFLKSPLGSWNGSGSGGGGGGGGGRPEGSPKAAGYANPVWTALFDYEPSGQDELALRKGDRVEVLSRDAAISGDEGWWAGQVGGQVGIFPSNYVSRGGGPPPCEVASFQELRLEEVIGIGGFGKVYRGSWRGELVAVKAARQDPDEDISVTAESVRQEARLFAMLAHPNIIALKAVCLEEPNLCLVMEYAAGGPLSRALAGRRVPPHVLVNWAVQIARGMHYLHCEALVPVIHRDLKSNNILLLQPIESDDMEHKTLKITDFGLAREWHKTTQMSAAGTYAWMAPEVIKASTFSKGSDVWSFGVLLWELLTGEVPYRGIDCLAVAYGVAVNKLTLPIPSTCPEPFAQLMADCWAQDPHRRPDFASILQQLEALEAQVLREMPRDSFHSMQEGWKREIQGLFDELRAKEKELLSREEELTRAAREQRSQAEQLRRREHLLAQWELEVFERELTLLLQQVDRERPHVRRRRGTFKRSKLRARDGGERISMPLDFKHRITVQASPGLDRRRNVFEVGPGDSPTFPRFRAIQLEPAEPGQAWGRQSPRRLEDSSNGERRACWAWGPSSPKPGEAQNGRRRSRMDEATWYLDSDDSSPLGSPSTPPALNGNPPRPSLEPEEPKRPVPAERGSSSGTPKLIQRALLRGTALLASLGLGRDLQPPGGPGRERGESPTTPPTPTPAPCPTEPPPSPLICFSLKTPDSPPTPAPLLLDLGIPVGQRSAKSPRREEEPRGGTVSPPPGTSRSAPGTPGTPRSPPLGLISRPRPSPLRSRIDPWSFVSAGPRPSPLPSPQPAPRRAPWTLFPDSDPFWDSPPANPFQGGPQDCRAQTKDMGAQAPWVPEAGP

CC(C)(O)CCOc1ccc(-c2cn(-c3cccnc3)c3nc[nH]c(=O)c23)cc1 [Ex-78, 5-(4-(3-hydroxy-3-methylbutoxy)phenyl)-7-(pyridin-3-yl)-3,7-dihydro-4H-pyrrolo[2,3-d]pyrimidin-4-one] was tested, and the “fold selectivity MAP4K4 over MLK3/MAP3K11” value (MLK3/MAP3K11; in favour of MAP4K4) was “(8) fold”, the IC50 (MLK3/MAP3K11; read-out: pIC50 MLK3/MAP3K11 (converted)) was 251 nM and the IC50 ([1]; IC50 category, ATP at Km (10 μM), 0.5 nM kinase domain, 2 h, read-out: MAP4K4) was at most 100 nM. For the same molecule, the IC50 ([1]; read-out: pIC50 MAP4K4 (converted)) was 31.6 nM, the “fold selectivity MAP4K4 over Aurora B” value (Aurora B) was “(1000) fold” and the “fold selectivity MAP4K4 over NUAK1” value (NUAK1; in favour of MAP4K4) was “(16) fold”. The IC50 (NUAK1; read-out: pIC50 NUAK1 (converted)) was 501 nM.
